Experiment [1] concerns Interleukin 6 (IL6). Description: SCOT trial longitudinal PBC gene expression: IL6. In kind it is in vivo, human. The following applies: PBCs of SSc patients. An excerpt:
(§1) The SCOT trial compared the therapeutic outcomes of myeloablative CD34+selected autologous HSCT and CYC in severe diffuse SSc patients (for study design details of SCOT trial, see Sullivan K. M. et al., N Engl J Med. 2018 Jan. 4; 378(1): 35-47. doi: 10.1056/nejmoa1703327. [PMID: 29298160]). The trial provided gene expression in the peripheral blood cells (PBCs) from 30 SSc patients who completed HSCT treatment, 33 patients who completed CYC treatment, and 28 healthy controls (Franks J. M. et al., Ann Rheum Dis. 2020 Sep. 15; annrheumdis-2020-217033. doi: 10.1136/annrheumdis-2020-217033. Online ahead of print. [PMID: 32933919]). In the current study, Applicant analyzed the longitudinal expression profile of SCOT patients from baseline to 54 months. 20 month and 26 month data were merged (referred to as 20/26 months), and 48 month and 54 month data were merged (referred to as 48/54 months).
(§2) To reduce the statistical bias of downstream comparisons, Applicant applied seasonal adjustment and linear interpolation to impute those missing time points. The “imputeTS” R package was used. Patients with only baseline gene expression data and no longitudinal samples were not imputed (n=20; 32% of participants; 10 for cyclophosphamide and 10 for transplant).

Experiment [2] is described as follows: SCOT trial outcomes / event free survival analysis. Type of experiment: in vivo, human. The following applies: CYC arm, median split, P=0.04.
Text: as §1
Survival analysis was performed using the “survival” R package based on gene level data. Only the baseline gene expression data were considered for these analyses. Patients were divided into two groups using the median expression value of a given gene as cutoff Briefly, high expression group is patients' gene expression greater than or equal to the median value and low expression group is patients' gene expression lower than the median value. […]

For experiment [3], the system named is ACVR1C. Description: SCOT trial longitudinal PBC gene expression: ACVR1C. The following applies: PBCs of SSc patients, baseline to 48/54 months, imputed data. In kind it is in vivo, human.
Text: as §1, §2

The subject of experiment [4] is TGF beta. The following applies: cited from earlier work.

Take `O=P1(N(CCCl)CCCl)NCCCO1` (stereo not drawn) [CYC, cyclophosphamide]: in experiment [1], the “IL6 expression over time” value is “increased”. The “hazard ratio (HR) for EFS, higher vs lower baseline CLCF1 expression” value in experiment [2] is given as 3.15. For the same molecule, the “ACVR1C expression over time” value in experiment [3] is “flat trend”.

As to “fresolimumab: anti-TGF beta monoclonal antibody therapy”, in experiment [4] (SSc patients), the SSc biomarkers result is “decreased” and the clinical symptoms entry is recorded as “improved”. For the same molecule, the trial result in experiment [4] (SSc) was “promising results”.
